Experimental data taken from the NIST ThermoML archive (doi:10.1021/acs.jced.5b00612).

Conditions: Liquid

CCCCCCCCCCCCCC(=O)OC [methyl tetradecanoate]
viscosity [mPa·s]
Conditions	303.15 K	313.15 K	333.15 K	353.15 K
101.3 kPa, Falling or rolling sphere viscometry	3.51	2.8	1.91	1.4
101.3 kPa, quartz crystal resonator	3.51	2.8	1.91	1.4
10000 kPa, quartz crystal resonator	3.95	3.15	2.14	1.57
20000 kPa, Falling or rolling sphere viscometry	4.43	3.5	2.37	1.72
20000 kPa, quartz crystal resonator	4.45	3.5	2.37	1.74
30000 kPa, quartz crystal resonator	4.95	3.91	2.61	1.92
40000 kPa, Falling or rolling sphere viscometry	5.51	4.31	2.89	2.08
40000 kPa, quartz crystal resonator	5.53	4.33	2.88	2.11
50000 kPa, quartz crystal resonator	6.11	4.79	3.16	2.29
60000 kPa, Falling or rolling sphere viscometry	–	5.24	3.47	2.47
60000 kPa, quartz crystal resonator	6.79	5.26	3.46	2.5
70000 kPa, quartz crystal resonator	–	5.74	3.76	2.71
80000 kPa, Falling or rolling sphere viscometry	–	6.31	4.11	2.9
80000 kPa, quartz crystal resonator	–	6.29	4.08	2.92
90000 kPa, quartz crystal resonator	–	–	4.46	3.14
100000 kPa, Falling or rolling sphere viscometry	–	7.54	4.82	3.38
100000 kPa, quartz crystal resonator	–	–	4.81	3.4

CCCCCCCCCCCCCC(=O)OCC [ethyl tetradecanoate]
viscosity [mPa·s]
Conditions	293.15 K	313.15 K	333.15 K	353.15 K
101.3 kPa, Falling or rolling sphere viscometry	4.73	2.96	2.03	1.48
101.3 kPa, quartz crystal resonator	4.73	2.96	2.03	1.48
10000 kPa, quartz crystal resonator	5.36	3.34	2.3	1.65
20000 kPa, Falling or rolling sphere viscometry	6.1	3.74	2.53	1.83
20000 kPa, quartz crystal resonator	6.08	3.71	2.54	1.84
30000 kPa, quartz crystal resonator	6.83	4.15	2.82	2.03
40000 kPa, Falling or rolling sphere viscometry	7.68	4.64	3.09	2.22
40000 kPa, quartz crystal resonator	7.68	4.63	3.13	2.24
50000 kPa, quartz crystal resonator	–	5.1	3.44	2.44
60000 kPa, Falling or rolling sphere viscometry	–	5.67	3.73	2.66
60000 kPa, quartz crystal resonator	–	5.67	3.76	2.66
70000 kPa, quartz crystal resonator	–	6.22	4.08	2.91
80000 kPa, Falling or rolling sphere viscometry	–	6.86	4.46	3.16
80000 kPa, quartz crystal resonator	–	6.89	4.48	3.14
90000 kPa, quartz crystal resonator	–	7.56	4.86	3.41
100000 kPa, Falling or rolling sphere viscometry	–	8.23	5.27	3.71
100000 kPa, quartz crystal resonator	–	8.14	5.25	3.66
